# According to patent publication US20090298708A1, “2'-DEOXY-2'-FLUORO-BETA-D-ARABINONUCLEOSIDE 5'-TRIPHOSPHATES AND THEIR USE IN ENZYMATIC NUCLEIC ACID SYNTHESIS” (priority 2006, published 2009):
# Read-outs that look alike come from different tables or passages of the source. Marks after values point to notes of the source that are not given here.
# What was measured:
# Design in all cases: key: ++++: excellent (no pausing observed); +++: very good (with slight pausing); ++: Good, full-length products with significant pausing; +: significant pausing, no full-length product but at least one 2′F-araN incorporation detected
# [1] = molecular target: T1, Bst DNA polymerase large fragment (Bst) (Geobacillus stearothermophilus, UniProt P52026); assay: Primer extension assay with Bst DNA polymerase large fragment; type: biochemical; conditions: for Incorporation of three 2′F-araTTP / 2′F-araCTP (incorporation efficiency): DNA template PF22 (2′F-araTTP) or PF24 (2′F-araCTP); for Enzymatic activity during primer extension reactions: plus dATP, dGTP
# T1 construct: consists of the portion of the Bacillus stearothemmophilus DNA polymerase protein responsible for 5′->3′ polymerase activity but lacks the 5′->3′ exonuclease domain; purchased New England Biolabs
# T1 sequence (P52026 289-876 limits assumed): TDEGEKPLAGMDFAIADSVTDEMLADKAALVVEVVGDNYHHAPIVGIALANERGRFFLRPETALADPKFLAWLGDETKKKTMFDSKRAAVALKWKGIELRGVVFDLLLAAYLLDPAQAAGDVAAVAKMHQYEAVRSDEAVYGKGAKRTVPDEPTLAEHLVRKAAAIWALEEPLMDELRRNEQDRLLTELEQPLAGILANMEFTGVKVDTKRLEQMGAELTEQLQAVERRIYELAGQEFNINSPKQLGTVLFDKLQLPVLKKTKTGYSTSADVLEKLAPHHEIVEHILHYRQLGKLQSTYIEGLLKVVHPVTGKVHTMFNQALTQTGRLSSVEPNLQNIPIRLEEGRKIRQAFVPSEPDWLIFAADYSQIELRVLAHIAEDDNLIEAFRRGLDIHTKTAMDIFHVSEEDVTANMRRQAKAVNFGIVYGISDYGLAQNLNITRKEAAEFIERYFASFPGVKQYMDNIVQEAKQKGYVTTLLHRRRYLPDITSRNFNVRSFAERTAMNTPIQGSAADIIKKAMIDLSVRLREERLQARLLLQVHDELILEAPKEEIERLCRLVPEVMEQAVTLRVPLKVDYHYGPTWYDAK
# Procedure: (§1) Various different types of DNA polymerases were assessed, including the mesophilic enzyme Klenow fragment of DNA pol I (3′→5′ exo-) (“Kf”); the thermophilic DNA polymerases DV, 9N, Taq, Bst pol I, Th and Ph; and the viral reverse transcriptases HIV RT and MMLV. Kf is a genetically engineered proteolytic product of E. coli pol A gene that encodes DNA polymerase I which retains polymerase activity but has a mutation which abolishes the 3′->5′ and 5′->3′ exonuclease activities. DV is a genetically engineered DNA polymerase purified from a strain of E. coli that carries the DV DNA polymerase gene from Pyrococcus species GB-D. The gene has been engineered to eliminate 3′->5′ proofreading exonuclease activity. 9N is a genetically engineered DNA polymerase that has decreased 3′->5′ proofreading exonuclease activity. 9N is purified from a strain of E. coli that carries a modified 9° N DNA polymerase gene from Thermococcus species (strain 9° N-7). […] Taq polymerase is isolated from E. coli engineered to express Taq polymerase from Thermus aquaticus YT-1. Bst DNA polymerase (Large fragment) is a genetically engineered polymerase that consists of the portion of the Bacillus stearothemmophilus DNA polymerase protein responsible for 5′->3′ polymerase activity but lacks the 5′->3′ exonuclease domain. Th DNA polymerase is a genetically engineered, archaeon-derived DNA polymerase that is a variant of the 9N polymerase described above. The recombinant protein is isolated from E. coli engineered to express 9° NA485L (exo-) DNA polymerase gene, a genetic variant of the native DNA polymerase from Thermococcus species 9° N-7. Ph is a recombinant DNA polymerase that consists of a novel Pyrococcus-like enzyme fused with a double-strand DNA-binding and processivity-enhancing domain.
# (§2) Primer extension assays were used to assess the incorporation of 2′F-araNTP on the various DNA templates (Table 1). The DNA primer (PF20) was first radioactively labeled at the 5′-hydroxyl terminus with a radioactive phosphorus probe and the enzyme T4 polynucleotide kinase (T4 PNK) (see Example 1 for General Methods). To assess the incorporation of 2′F-araNTPs, the primer and template were annealed, and the nucleoside 5′-triphosphates added in the presence of enzyme under the conditions specified in Table 2. Time points were obtained by analyzing small aliquots from the reaction mixture through polyacryamide gel electrophoresis (PAGE) and autoradiography.
# (§3) Unless otherwise noticed in the Examples described below, the conditions used in the primer extension assays, such as dNTP concentration, reaction temperatures, concentration of Mg^2+, and reaction buffers (provided by the manufacturers, except for the HIV buffer which was prepared in-house) are shown in Table 2.
# Primer extension assays were used to assess the incorporation of 2′F-araTTP on the DNA template (PF22). The DNA primer (PF20) was first radioactively labeled at the 5′-hydroxyl terminus with a radioactive phosphorus probe and the enzyme T4 polynucleotide kinase (T4 PNK) according to the manufacturer's specifications (MBI Fermentas Life Sciences, Burlington, ON). Incorporation of the ^32P label was accomplished in reaction mixtures consisting of DNA substrate (200 pmol), 2 μl loxreaction buffer (Buffer A for forward reaction: 500 mM Tris-HCl, pH 7.6 at 25° C., 100 mM MgCl2, 50 mM DTT, 1 mM spermidine and 1 mM EDTA), 1 μl T4 PNK enzyme solution (10 U/1 μl in a solution of 20 mM Tris-HCl, pH 7.5, 25 mM KCl, 0.1 mM EDTA, 2 mM DTT and 50% glycerol), 6 μl [γ-^32P]-ATP solution (6000 Ci/mmol, 10 mCi/ml; Amersham Biosciences, Inc.) and autoclaved sterile water to a final volume of 20 μl. The reaction mixture was incubated for about 45-60 min at 37° C., followed by a second incubation for 10 min at 95° C. to heat denature and deactivate the kinase enzyme.
# Taq DNA polymerase (Taq) = molecular target: T2, Taq DNA polymerase (Taq) (Thermus aquaticus, UniProt P19821); assay: Primer extension assay with Taq DNA polymerase; type: biochemical, Thermus aquaticus YT-1; conditions: for Incorporation of three 2′F-araTTP / 2′F-araCTP (incorporation efficiency): DNA template PF22 (2′F-araTTP) or PF24 (2′F-araCTP); for Enzymatic activity during primer extension reactions: plus dATP, dGTP
# T2 construct: purchased New England Biolabs; host or cells: E. coli
# Procedure: as §1, §2, §3
# Primer extension assays were used to assess the incorporation of 2′F-araTTP on the DNA template (PF22). The DNA primer (PF20) was first radioactively labeled at the 5′-hydroxyl terminus with a radioactive phosphorus probe and the enzyme T4 polynucleotide kinase (T4 PNK) according to the manufacturer's specifications (MBI Fermentas Life Sciences, Burlington, ON). […]
# [2] = test system: Phusion™ High-Fidelity DNA polymerase (Ph); assay: Primer extension assay with Phusion High-Fidelity DNA polymerase; type: biochemical; conditions: 55° C.; for Incorporation of three 2′F-araTTP / 2′F-araCTP (incorporation efficiency): DNA template PF22 (2′F-araTTP) or PF24 (2′F-araCTP); for Enzymatic activity during primer extension reactions: plus dATP, dGTP
# Procedure: as §1, §2
# as §3, with “2. […]” for “2.”
# [3] = molecular target: T3, Klenow fragment DNA polymerase (3′→ 5′ exo-) (Kf) (Escherichia coli, UniProt P00582, D355A/E357A); type: biochemical, E. coli; conditions: 37° C.; for Incorporation of three 2′F-araTTP / 2′F-araCTP (incorporation efficiency): DNA template PF22 (2′F-araTTP) or PF24 (2′F-araCTP); for Enzymatic activity during primer extension reactions: plus dATP, dGTP
# T3 construct: the mesophilic enzyme Klenow fragment of DNA pol I (3′→5′ exo-) (“Kf”); purchased New England Biolabs
# Procedure: as §1, §2
# as §3, with “2. […]” for “2.”
# [4] = Example 2, DNA template PF22, 3x 2′F-araTTP, dCTP
# [5] = Example 3, DNA template PF24, 3x 2′F-araCTP, dTTP, 55° C.
# [6] = Example 3, DNA template PF24, 3x 2′F-araCTP, dTTP
# T2 sequence (P19821 whole entry): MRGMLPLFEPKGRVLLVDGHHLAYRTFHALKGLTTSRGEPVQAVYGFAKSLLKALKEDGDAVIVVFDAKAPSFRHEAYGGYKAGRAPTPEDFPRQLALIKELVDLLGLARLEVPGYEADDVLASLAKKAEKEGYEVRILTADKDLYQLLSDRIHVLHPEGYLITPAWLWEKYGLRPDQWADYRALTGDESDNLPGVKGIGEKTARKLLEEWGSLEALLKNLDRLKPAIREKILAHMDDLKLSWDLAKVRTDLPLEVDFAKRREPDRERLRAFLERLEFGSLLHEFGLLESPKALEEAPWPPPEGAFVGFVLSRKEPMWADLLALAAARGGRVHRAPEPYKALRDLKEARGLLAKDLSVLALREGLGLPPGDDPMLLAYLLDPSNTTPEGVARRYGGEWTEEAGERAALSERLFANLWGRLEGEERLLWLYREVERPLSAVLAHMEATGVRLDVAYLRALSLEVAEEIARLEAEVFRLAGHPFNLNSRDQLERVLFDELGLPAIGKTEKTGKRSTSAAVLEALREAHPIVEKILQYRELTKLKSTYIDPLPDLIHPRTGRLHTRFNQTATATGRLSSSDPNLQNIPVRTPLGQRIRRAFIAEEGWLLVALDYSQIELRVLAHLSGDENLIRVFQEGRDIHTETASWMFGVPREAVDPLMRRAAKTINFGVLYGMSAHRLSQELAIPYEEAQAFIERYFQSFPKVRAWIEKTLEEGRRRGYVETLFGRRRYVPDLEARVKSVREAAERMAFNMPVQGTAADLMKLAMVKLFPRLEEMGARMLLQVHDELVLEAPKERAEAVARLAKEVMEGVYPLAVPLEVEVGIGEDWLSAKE
# T3 sequence (P00582 324-928 D355A/E357A): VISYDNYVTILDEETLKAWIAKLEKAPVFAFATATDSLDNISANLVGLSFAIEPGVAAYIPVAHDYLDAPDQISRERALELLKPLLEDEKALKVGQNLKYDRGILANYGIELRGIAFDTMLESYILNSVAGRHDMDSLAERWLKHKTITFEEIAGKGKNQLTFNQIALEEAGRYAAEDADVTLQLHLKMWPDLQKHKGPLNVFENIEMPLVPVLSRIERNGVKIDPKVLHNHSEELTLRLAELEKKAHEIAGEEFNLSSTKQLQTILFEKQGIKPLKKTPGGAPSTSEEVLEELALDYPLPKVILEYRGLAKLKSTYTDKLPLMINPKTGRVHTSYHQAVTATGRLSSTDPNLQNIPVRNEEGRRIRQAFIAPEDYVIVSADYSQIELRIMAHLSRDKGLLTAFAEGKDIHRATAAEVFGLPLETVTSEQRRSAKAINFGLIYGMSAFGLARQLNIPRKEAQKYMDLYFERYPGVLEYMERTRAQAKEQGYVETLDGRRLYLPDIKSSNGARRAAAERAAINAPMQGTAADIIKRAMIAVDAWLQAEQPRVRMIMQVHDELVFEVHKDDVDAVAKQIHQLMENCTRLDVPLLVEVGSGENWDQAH
Compound,Incorporation of three 2′F-araTTP / 2′F-araCTP (incorporation efficiency) ([1]; 37° C.),Incorporation of three 2′F-araTTP / 2′F-araCTP (incorporation efficiency) ([1]; 55° C.),"Enzymatic activity during primer extension reactions ([1]; Example 2, DNA template PF22, 3x 2′F-araTTP, dCTP, 55° C.)",Incorporation of three 2′F-araTTP / 2′F-araCTP (incorporation efficiency) (Taq DNA polymerase (Taq); 37° C.),"Enzymatic activity during primer extension reactions (Taq DNA polymerase (Taq); Example 2, DNA template PF22, 3x 2′F-araTTP, dCTP, at 37° C.)",Incorporation of three 2′F-araTTP / 2′F-araCTP (incorporation efficiency) [2],"Enzymatic activity during primer extension reactions [2, 4]",Incorporation of three 2′F-araTTP / 2′F-araCTP (incorporation efficiency) [3],"Enzymatic activity during primer extension reactions [3, 4]","Enzymatic activity during primer extension reactions [1, 5]",Incorporation of three 2′F-araTTP / 2′F-araCTP (incorporation efficiency) (Taq DNA polymerase (Taq); 55° C.),Enzymatic activity during primer extension reactions (Taq DNA polymerase (Taq); [5]),"Enzymatic activity during primer extension reactions [2, 6]","Enzymatic activity during primer extension reactions [3, 6]"
"Cc1cn([C@@H]2O[C@H](COP(=O)(O)OP(=O)(O)OP(=O)(O)O)[C@@H](O)[C@@H]2F)c(=O)[nH]c1=O [2′F-araTTP, 1-(2-deoxy-2-fluoro-β-D-arabino-furanosyl)thymine 5′-triphosphate]",++,+++,+++,++,++^b,++++,++++,++,++,–,–,–,–,–
"Nc1ccn([C@@H]2O[C@H](COP(=O)(O)OP(=O)(O)OP(=O)(O)O)[C@@H](O)[C@@H]2F)c(=O)n1 [2′F-araCTP, 1-(2-deoxy-2-fluoro-β-D-arabinofuranosyl)cytosine 5′-triphosphate]",None,++++,–,++,–,++++,–,++,–,++++,++++,++++,++++,++
